Measurements published in patent US11370774B2, “Substituted benzofuran, benzopyrrole, benzothiophene, and structurally related complement inhibitors” (BioCryst Pharmaceuticals, Inc., priority 2018, dated 2022).

biological target: Factor D (Homo sapiens (Human), UniProt P00746); test: Factor D esterolytic assay (Z-Lys-SBzl substrate, DTNB, 405 nm); assay type: biochemical; settings: Z-Lys-SBzl 1.29 mM, pH 7.5, 10% DMSO, tested a minimum of three times, read-out: Measured Ki (IC50) Value for Compounds: IC50
Sequence (P00746 26-253): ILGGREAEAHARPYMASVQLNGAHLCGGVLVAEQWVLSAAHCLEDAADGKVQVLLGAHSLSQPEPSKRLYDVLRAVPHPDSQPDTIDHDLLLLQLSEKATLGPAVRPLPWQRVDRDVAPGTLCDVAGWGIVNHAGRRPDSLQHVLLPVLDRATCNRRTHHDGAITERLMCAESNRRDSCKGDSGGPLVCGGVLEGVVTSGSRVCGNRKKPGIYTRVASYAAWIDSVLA
Procedure: The IC50 value of a compound (i.e., the concentration of the compound that inhibits 50% of the enzymatic activity) was calculated according to the procedure reported in U.S. Pat. No. 6,653,340 B1, e.g., column 74 (incorporated by reference).
Specifically, the compounds were dissolved in a stock solution of DMSO at 10.0 or 100 mM. A portion of this stock solution was added to assay buffer in a final volume of 50 μL. Controls included buffer alone and enzyme solutions to which DMSO was added. Substrate was added to the reaction wells immediately or after incubation at room temperature. The reaction rates were measured spectrophotometrically by the generation of product at 405 nm for 600 sec. Background absorbance at 690 nm was measured and subtracted from the absorbance at 405 nm for each well.
The reaction rate for enzyme alone was compared to the rate of enzyme in the presence of inhibitor and the percent inhibition was calculated as shown below: Percent Inhibition=[Rate without inhibitor−Rate with inhibitor)/(Rate without inhibitor)]×100 Factor D Esterolytic Assay:
An established esterolytic assay for the measurement of Factor D activity and inhibition of Factor D activity was used (Kam, C. M.; McRae, B. J.; Harper, J. W.; Niemann, M. A.; Volanakis, J. E.; Powers, J. C. Human complement proteins D, C2, and B Active site mapping with peptide thioester substrates. J Biol. Chem. 1987, 262, 3444-3451). For this assay Z-Lys-SBzl, 1.29 mM (Kim, S.; Narayana, S. V. L; Volanakis, J. E. Mutational analysis of the substrate binding site of human complement Factor D. Biochemistry. 1994, 33, 14393-14399.) was used as the substrate for Factor D ([…]). Hydrolysis of this compound by Factor D liberated a free sulfhydryl group which is then reacted with 5,5′-dithiobis(2nitrobenzoic acid) producing an intense yellow color (Habeeb, A. F. S. A. Reaction of protein sulfhydryl groups with Ellman's Reagent. Methods in Enzymol. 1976, 25, 457-464). The assays were performed in 96 well microtiter plates and rates of hydrolysis were monitored at 405 nm on a Biotek Synergy H1 plate reader. Hydrolysis rates were reported as change in mOD/min. The assay was conducted in 100 mM HEPES, 500 mM NaCl, pH 7.5 containing 10% DMSO in a final volume of 50 μL per well.
An IC50, a compound concentration which inhibits 50% of the enzymatic activity, was calculated. Compounds in the examples were tested a minimum of three times.

Row | Structure (SMILES) | IC50
1 | COCc1cc2cc(COc3cc(C)ccc3CC(=O)O)cc(-c3ccnc(CN)c3F)c2o1 [Compound 453d, 2-(2-((7-(2-(aminomethyl)-3-fluoropyridin-4-yl)-2-(methoxymethyl)benzofuran-5-yl)methoxy)-4-methylphenyl)acetic acid] | < 1000 nM
2 | NCc1cccc(-c2cc(CCN3CCC[C@H]3C(=O)NCc3cccc(Cl)c3F)cc3ccoc23)c1 [Compound 369d, (S)-1-(2-(7-(3-(aminomethyl)phenyl)benzofuran-5-yl)ethyl)-N-(3-chloro-2-fluorobenzyl)pyrrolidine-2-carboxamide] | < 1000 nM
3 | COc1ccc(CC(=O)O)c(OCc2cc(-c3cccc(CN)c3)c3occc3c2)c1 [Compound 303g, 2-(2-((7-(3-(aminomethyl)phenyl)benzofuran-5-yl)methoxy)-4-methoxyphenyl)acetic acid] | < 1000 nM
4 | Cc1ccc(CC(=O)O)c(OCc2cc(-c3cccc(CN)c3)c3sccc3c2)c1 [Compound 443i, 2-(2-((7-(3-(aminomethyl)phenyl)benzo[b]thiophen-5-yl)methoxy)-4-methylphenyl)acetic acid] | < 1000 nM
5 | NCc1cccc(-c2cc(COc3ccccc3CC(=O)O)cc3cc(C(=O)NCc4ccccc4)oc23)c1 [Compound 290c, 2-(2-((7-(3-(aminomethyl)phenyl)-2-(benzylcarbamoyl)benzofuran-5-yl)methoxy)phenyl)acetic acid] | < 1000 nM
6 | N=C(N)c1cccc(-c2cc(COc3ccccc3CC(=O)O)cc3ccoc23)c1 [Compound 85c, 2-(2-((7-(3-carbamimidoylphenyl)benzofuran-5-yl)methoxy)phenyl)acetic acid] | < 1000 nM
7 | NCc1nccc(-c2cc(COc3ccc(F)cc3CC(=O)O)c(F)c3ccoc23)c1F [Compound 388d, 2-(2-((7-(2-(aminomethyl)-3-fluoropyridin-4-yl)-4-fluorobenzofuran-5-yl)methoxy)-5-fluorophenyl)acetic acid] | < 1000 nM
8 | NCc1cccc(-c2cc(COc3ccccc3CC(=O)O)cc3[nH]ncc23)c1 [Compound 156b, 2-(2-((4-(3-(aminomethyl)phenyl)-1H-indazol-6-yl)methoxy)phenyl)acetic acid] | < 1000 nM
9 | NCc1cccc(-c2cc(COc3ccccc3CC(=O)O)cc3cc(COc4ccccc4)oc23)c1 [Compound 457c, 2-(2-((7-(3-(aminomethyl)phenyl)-2-(phenoxymethyl)benzofuran-5-yl)methoxy)phenyl)acetic acid] | < 1000 nM
10 | Cn1ccc2c(-c3cccc(CN)c3F)cc(COc3ccccc3CC(=O)O)cc21 [Compound 97b, 2-(2-((4-(3-(aminomethyl)-2-fluorophenyl)-1-methyl-1H-indol-6-yl)methoxy)phenyl)acetic acid] | < 1000 nM
11 | Cn1ccc2c(-c3ccnc(CN)c3F)cc(COc3ccccc3CC(=O)O)cc21 [Compound 150b, 2-(2-((4-(2-(aminomethyl)-3-fluoropyridin-4-yl)-1-methyl-1H-indol-6-yl)methoxy)phenyl)acetic acid] | < 1000 nM
12 | COc1cccc(CC(=O)O)c1OCc1cc(-c2cccc(CN)c2)c2occc2c1 [Compound 476f, 2-(2-((7-(3-(aminomethyl)phenyl)benzofuran-5-yl)methoxy)-3-methoxyphenyl)acetic acid] | < 1000 nM
13 | COCc1cc2cc(COc3ccccc3CC(=O)O)cc(-c3cccc(C(N)CF)c3)c2o1 (single isomer, unassigned; (+)) [Compound 278e, (+)-2-(2-((7-(3-(1-amino-2-fluoroethyl)phenyl)-2-(methoxymethyl)benzofuran-5-yl)methoxy)phenyl)acetic acid] | < 1000 nM
14 | NCc1nccc(-c2cc(COc3ccc(F)cc3CC(=O)O)cc3ccoc23)c1F [Compound 90d, 2-(2-((7-(2-(aminomethyl)-3-fluoropyridin-4-yl)benzofuran-5-yl)methoxy)-5-fluorophenyl)acetic acid] | < 1000 nM
15 | NCc1nccc(-c2cc(COc3ccccc3CC(=O)O)cc3ccsc23)c1F [Compound 431c, 2-(2-((7-(2-(aminomethyl)-3-fluoropyridin-4-yl)benzo[b]thiophen-5-yl)methoxy)phenyl)acetic acid] | < 1000 nM
16 | Cn1ncc2c(-c3cccc(CN)c3)cc(COc3ccccc3CC(=O)O)cc21 [Compound 131b, 2-(2-((4-(3-(aminomethyl)phenyl)-1-methyl-1H-indazol-6-yl)methoxy)phenyl)acetic acid] | < 1000 nM
17 | NCc1cccc(-c2cc(COc3ccccc3CC(=O)O)cc3cc(CN4CCOCC4)oc23)c1 [Compound 139c, 2-(2-((7-(3-(aminomethyl)phenyl)-2-(morpholinomethyl)benzofuran-5-yl)methoxy)phenyl)acetic acid] | < 1000 nM
18 | NCc1cccc(-c2cc(COc3ccc(C(N)=O)cc3CC(=O)O)cc3ccoc23)c1 [Compound 244c, 2-(2-((7-(3-(aminomethyl)phenyl)benzofuran-5-yl)methoxy)-5-carbamoylphenyl)acetic acid] | 1000 to 10000 nM
19 | NCc1cccc(-c2cc(CC(=O)N3CCC[C@H]3C(=O)NCc3cccc(Cl)c3F)cc3ccoc23)c1 [Compound 277e, (S)-1-(2-(7-(3-(aminomethyl)phenyl)benzofuran-5-yl)acetyl)-N-(3-chloro-2-fluorobenzyl)pyrrolidine-2-carboxamide] | < 1000 nM
20 | NCc1cccc(-c2cc(COc3ccccc3CC(=O)O)cc3cc(CNC(=O)Cc4ccccc4)oc23)c1 [Compound 296c, 2-(2-((7-(3-(aminomethyl)phenyl)-2-((2-phenylacetamido)methyl)benzofuran-5-yl)methoxy)phenyl)acetic acid] | < 1000 nM
21 | Cc1cc2cc(COc3ccccc3CC(=O)O)cc(-c3ccnc(CN)c3F)c2o1 [Compound 113c, 2-(2-((7-(2-(aminomethyl)-3-fluoropyridin-4-yl)-2-methylbenzofuran-5-yl)methoxy)phenyl)acetic acid] | < 1000 nM
22 | NCc1cccc(-c2cc(COc3cc4occc4cc3CC(=O)O)cc3ccoc23)c1 [Compound 298f, 2-(6-((7-(3-(aminomethyl)phenyl)benzofuran-5-yl)methoxy)benzofuran-5-yl)acetic acid] | < 1000 nM
23 | CCc1ccc(CC(=O)O)c(OCc2cc(-c3ccnc(CN)c3F)c3occc3c2)c1 [Compound 375c, 2-(2-((7-(2-(aminomethyl)-3-fluoropyridin-4-yl)benzofuran-5-yl)methoxy)-4-ethylphenyl)acetic acid] | < 1000 nM
24 | CC(C)n1ccc2c(-c3ccnc(CN)c3)cc(COc3ccc(F)cc3CC(=O)O)cc21 [Compound 497d, 2-(2-((4-(2-(aminomethyl)pyridin-4-yl)-1-isopropyl-1H-indol-6-yl)methoxy)-5-fluorophenyl)acetic acid] | < 1000 nM
25 | NCc1cccc(-c2cc(COc3cc(-c4ccoc4)ccc3CC(=O)O)cc3ccoc23)c1 [Compound 313c, 2-(2-((7-(3-(aminomethyl)phenyl)benzofuran-5-yl)methoxy)-4-(furan-3-yl)phenyl)acetic acid] | < 1000 nM
26 | NCc1cccc(-c2cc(CC(=O)N3[C@@H]4C[C@@H]4C[C@H]3C(=O)NCc3cccc(Cl)c3F)cc3ccoc23)c1 [Compound 273g, (1R,3S,5R)-2-(2-(7-(3-(aminomethyl)phenyl)benzofuran-5-yl)acetyl)-N-(3-chloro-2-fluorobenzyl)-2-azabicyclo[3.1.0]hexane-3-carboxamide] | < 1000 nM
27 | Cc1ccc(CC(=O)O)c(OCc2cc(-c3ccnc(CN)c3F)c3occ(C(F)(F)F)c3c2)c1 [Compound 343e, 2-(2-((7-(2-(aminomethyl)-3-fluoropyridin-4-yl)-3-(trifluoromethyl)benzofuran-5-yl)methoxy)-4-methylphenyl)acetic acid] | < 1000 nM
28 | COc1ccc(CC(=O)O)c(OCc2cc(-c3ccnc(CN)c3)c3occ(C(F)(F)F)c3c2)c1 [Compound 499b, 2-(2-((7-(2-(aminomethyl)pyridin-4-yl)-3-(trifluoromethyl)benzofuran-5-yl)methoxy)-4-methoxyphenyl)acetic acid] | < 1000 nM
29 | COCc1cc2cc(COc3cc(OC)ccc3CC(=O)O)cc(-c3ccnc(CN)c3)c2o1 [Compound 472b, 2-(2-((7-(2-(aminomethyl)pyridin-4-yl)-2-(methoxymethyl)benzofuran-5-yl)methoxy)-4-methoxyphenyl)acetic acid] | < 1000 nM
30 | Cc1coc2c(-c3cccc(CN)c3F)cc(COc3ccccc3CC(=O)O)cc12 [Compound 383b, 2-(2-((7-(3-(aminomethyl)-2-fluorophenyl)-3-methylbenzofuran-5-yl)methoxy)phenyl)acetic acid] | < 1000 nM
